Laboratory results reported in patent US4225619A, “Substituted fluoracylresorcinols” (Boehringer Ingelheim GmBH, priority 1976, dated 1980).
Values after ≈ are worked out from the molar mass of the structure shown.

Test system: HeLa-cell culture
Assay: Inhibition of HeLa cell cultures
Type: cell-based
Details: Homo sapiens, 72 h, 37° C. for 3 days, 5% carbon dioxide; for IC50: read-out: ED50, HeLa cell culture; for minimal effective concentration: read-out: Minimal inhibitory concentration, HeLa cell culture
Procedure: Measurement of the inhibition of cell cultures
HeLa-cell culture was treated with trypsin and adjusted to a cell number of 150,000 cells/ml of fresh medium. The substance was always dissolved in the same quantity of dimethyl sulfoxide and then further diluted with growth medium. 0.1 ml of the substance-dilutions were added to each well of microtiter plates and then 0.2 ml of cell suspension were added (4 wells per dilution). Several growth controls containing 0.1 ml of growth medium instead of 0.1 ml of substance dilution were put up. After careful mixing, the cultures were incubated at 37° C. for 3 days in a 5% carbon dioxide atmosphere. The reading was effected in comparison with these controls. The results were given as the percentage of the deficiency and degeneration compared to the growth control. […] The statements are referred to μg of substance per ml of total medium.

SMILES | IC50 | minimal effective concentration
O=C(c1ccc(O)cc1O)C(F)(F)F [A, 2,4-Dihydroxy-trifluoroacetophenone, reference compound] | 12.5 µg/mL (≈ 60.6 µM) | 3.13 µg/mL
CCc1cc(C(=O)C(F)(F)F)c(O)cc1O [B, 5-Ethyl-2,4-dihydroxy-trifluoroacetophenone, reference compound] | 9.75 µg/mL (≈ 41.6 µM) | 6.25 µg/mL
COc1ccc(C(=O)C(F)(F)F)c(OC)c1 [D, 2,4-Dimethoxy-trifluoroacetophenone, reference compound] | 90.1 µg/mL (≈ 385 µM) | 25 µg/mL
CC(C)Cc1c(O)ccc(C(=O)C(F)(F)F)c1O [F, 2,4-Dihydroxy-3-iso-butyl-trifluoroacetophenone] | 7.7 µg/mL (≈ 29.4 µM) | 0.78 µg/mL
CC1CCC(c2c(O)ccc(C(=O)C(F)(F)F)c2O)CC1 (stereo not drawn) [H, 2,4-Dihydroxy-3-(4'-methyl)-cyclohexyl-trifluoro-acetophenone] | 4.2 µg/mL (≈ 13.9 µM) | ≤ 0.78 µg/mL
CC(C)c1c(O)ccc(C(=O)C(F)(F)F)c1O [P, 2,4-Dihydroxy-3-isopropyl-trifluoroacetophenone] | 3.52 µg/mL (≈ 14.2 µM) | 1.56 µg/mL
